Experimental data published in ChEMBL document CHEMBL3120141, “Discovery of (1R,6S)-5-[4-(1-cyclobutyl-piperidin-4-yloxy)-phenyl]-3,4-diaza-bicyclo[4.1.0]hept-4-en-2-one (R,S-4a): histamine H(3) receptor inverse agonist demonstrating potent cognitive enhancing and wake promoting activity” (Bioorg Med Chem Lett, 2014).
Values after ≈ are worked out from the molar mass of the structure shown. Active and inactive are the calls of the source. No cut-off for these calls is given here.

Tests used:
[1] = Apparent permeability across human Caco2 cells; assay type: ADME, cell-based; conditions: Caco-2
[2] = molecular target: Cytochrome P450 3A4 (Homo sapiens, UniProt P08684); experiment: Inhibition of CYP3A4 (unknown origin); assay type: ADME
[3] = molecular target: T1, Histamine H3 receptor (Homo sapiens, UniProt Q9Y5N1); experiment: Displacement of [3H]NAMH from human histamine H3 receptor transfected in CHO cells; assay type: cell-based
T1 sequence (Q9Y5N1 whole entry): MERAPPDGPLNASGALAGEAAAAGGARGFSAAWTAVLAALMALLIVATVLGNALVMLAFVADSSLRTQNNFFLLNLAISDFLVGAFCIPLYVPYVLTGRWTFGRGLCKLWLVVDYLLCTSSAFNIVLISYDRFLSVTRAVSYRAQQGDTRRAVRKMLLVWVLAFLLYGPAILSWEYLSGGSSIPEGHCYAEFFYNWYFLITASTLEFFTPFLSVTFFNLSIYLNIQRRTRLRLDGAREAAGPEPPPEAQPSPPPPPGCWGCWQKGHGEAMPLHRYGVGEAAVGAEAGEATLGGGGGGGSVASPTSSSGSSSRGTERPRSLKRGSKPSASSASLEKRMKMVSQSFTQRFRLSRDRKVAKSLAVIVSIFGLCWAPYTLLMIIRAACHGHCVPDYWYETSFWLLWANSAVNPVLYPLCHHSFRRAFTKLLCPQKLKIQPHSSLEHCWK

[4] = tested on: Rattus norvegicus; experiment: Enhancement of short term memory in rat social recognition memory model assessed as decrease in investigation ratio at 0.03 to 0.3 mg/kg, po; assay type: functional, organism-based
[5] = molecular target: Cytochrome P450 2C9 (Homo sapiens, UniProt P11712); experiment: Inhibition of CYP2C9 (unknown origin); assay type: ADME
Chain of Cytochrome P450 2C9 (P11712 whole entry): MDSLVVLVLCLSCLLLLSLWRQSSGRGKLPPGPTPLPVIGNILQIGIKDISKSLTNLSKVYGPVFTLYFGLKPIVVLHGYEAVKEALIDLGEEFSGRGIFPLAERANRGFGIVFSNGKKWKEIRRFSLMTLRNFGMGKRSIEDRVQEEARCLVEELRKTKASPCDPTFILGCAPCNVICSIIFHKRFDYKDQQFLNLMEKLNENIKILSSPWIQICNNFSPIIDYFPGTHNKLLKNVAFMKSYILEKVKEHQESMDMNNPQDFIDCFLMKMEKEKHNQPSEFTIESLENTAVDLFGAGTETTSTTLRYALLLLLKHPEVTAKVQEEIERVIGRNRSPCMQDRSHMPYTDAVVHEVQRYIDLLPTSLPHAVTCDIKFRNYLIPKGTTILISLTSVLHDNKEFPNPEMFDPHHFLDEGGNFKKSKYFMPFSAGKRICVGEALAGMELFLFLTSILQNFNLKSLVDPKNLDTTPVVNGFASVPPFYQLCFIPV

[6] = Half life in dog liver microsomes; assay type: ADME, Canis lupus familiaris
[7] = molecular target: T1, Histamine H3 receptor; experiment: Inverse agonist activity at human histamine H3 receptor by [35S]GTPgammaS binding assay; assay type: functional
[8] = tested on: Rattus norvegicus; experiment: Wake promoting activity in EEG/EMG rat model assessed as cumulative wake time at 10 mg/kg, ip after 4 hrs (reference value: 86 +/- 7 mins); assay type: functional; conditions: route intraperitoneal
[9] = Clearance in dog at 1 mg/kg, iv; assay type: ADME, organism-based, Canis lupus familiaris; design: dose 1 mg/kg, route intravenous; conditions: in vivo
[10] = tested on: Rattus norvegicus; experiment: Wake promoting activity in ip dosed EEG/EMG rat model assessed as cumulative wake time after 4 hrs; assay type: functional, organism-based
[11] = Terminal half life in rat at 1 mg/kg, iv; assay type: ADME, organism-based; design: dose 1 mg/kg, route intravenous; conditions: in vivo, read-out: beta t1/2 (converted)
[12] = Cmax in dog at 3 mg/kg, po; assay type: ADME, organism-based, Canis lupus familiaris; design: dose 3 mg/kg, route oral; conditions: in vivo
[13] = Cmax in rat at 5 mg/kg, po; assay type: ADME, organism-based; design: dose 5 mg/kg, route oral; conditions: in vivo
[14] = Oral bioavailability in monkey at 3 mg/kg; assay type: ADME, organism-based, Macaca mulatta; conditions: rhesus monkey, in vivo
[15] = molecular target: Histamine H2 receptor (Homo sapiens) (UniProt P25021); experiment: Inhibition of human histamine H2 receptor at 10 uM
Chain of Histamine H2 receptor (Homo sapiens) (P25021 whole entry): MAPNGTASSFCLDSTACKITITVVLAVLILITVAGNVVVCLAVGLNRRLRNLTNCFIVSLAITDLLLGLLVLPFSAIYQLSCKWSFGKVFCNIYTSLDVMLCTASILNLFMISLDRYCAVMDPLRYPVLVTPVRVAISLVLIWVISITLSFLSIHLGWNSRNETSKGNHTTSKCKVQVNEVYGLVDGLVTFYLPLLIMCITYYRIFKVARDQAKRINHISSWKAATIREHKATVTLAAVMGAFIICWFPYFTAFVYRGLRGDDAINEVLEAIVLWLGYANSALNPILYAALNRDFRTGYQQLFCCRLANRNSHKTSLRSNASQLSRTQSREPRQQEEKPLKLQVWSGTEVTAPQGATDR

[16] = Volume of distribution at steady state in dog at 1 mg/kg, iv; assay type: ADME, organism-based, Canis lupus familiaris; design: dose 1 mg/kg, route intravenous; conditions: in vivo, read-out: Vdss
[17] = AUC in rat at 5 mg/kg, po; assay type: ADME, organism-based, Plasma; design: dose 5 mg/kg, route oral; conditions: plasma
[18] = AUC in dog at 3 mg/kg, po; assay type: ADME, organism-based, Canis lupus familiaris; design: dose 3 mg/kg, route oral; conditions: plasma
[19] = Oral bioavailability in dog at 3 mg/kg; assay type: ADME, organism-based, Canis lupus familiaris; conditions: in vivo
[20] = Oral bioavailability in rat at 5 mg/kg; assay type: ADME, organism-based; conditions: in vivo
[21] = tested on: Rattus norvegicus; experiment: Wake promoting activity in EEG/EMG rat model assessed as cumulative wake time at 30 mg/kg, ip after 7.5 to 18 hrs relative to vehicle-treated control; assay type: functional; conditions: route intraperitoneal
[22] = Clearance in monkey at 1 mg/kg, iv; assay type: ADME, organism-based, Macaca mulatta; design: dose 1 mg/kg, route intravenous; conditions: rhesus monkey, in vivo
[23] = tested on: Rattus norvegicus; experiment: Toxicity in EEG/EMG rat model assessed as abnormal behavior at 1 to 30 mg/kg, ip; assay type: organism-based; design: dose 1-30 mg/kg, route intraperitoneal; conditions: in vivo
[24] = Clearance in rat at 1 mg/kg, iv; assay type: ADME, organism-based; design: dose 1 mg/kg, route intravenous; conditions: in vivo
[25] = AUC in monkey at 3 mg/kg, po; assay type: ADME, organism-based, Macaca mulatta; design: dose 3 mg/kg, route oral; conditions: rhesus monkey, plasma
[26] = tested on: Rattus norvegicus; experiment: Wake promoting activity in EEG/EMG rat model assessed as cumulative wake time at 10 mg/kg, ip after 1.5 hrs relative to vehicle-treated control; assay type: functional; conditions: route intraperitoneal
[27] = Plasma protein binding in rat; assay type: ADME, cell-free; conditions: read-out: PPB (converted)
[28] = tested on: Rattus norvegicus; experiment: Toxicity in EEG/EMG rat model assessed as sleep rebound at 1 to 30 mg/kg, ip; assay type: organism-based; design: dose 1-30 mg/kg, route intraperitoneal; conditions: in vivo
[29] = Half life in mouse liver microsomes; assay type: ADME, Microsome
[30] = molecular target: Cytochrome P450 2C19 (Homo sapiens, UniProt P33261); experiment: Inhibition of CYP2C19 (unknown origin); assay type: ADME
Chain of Cytochrome P450 2C19 (P33261 whole entry): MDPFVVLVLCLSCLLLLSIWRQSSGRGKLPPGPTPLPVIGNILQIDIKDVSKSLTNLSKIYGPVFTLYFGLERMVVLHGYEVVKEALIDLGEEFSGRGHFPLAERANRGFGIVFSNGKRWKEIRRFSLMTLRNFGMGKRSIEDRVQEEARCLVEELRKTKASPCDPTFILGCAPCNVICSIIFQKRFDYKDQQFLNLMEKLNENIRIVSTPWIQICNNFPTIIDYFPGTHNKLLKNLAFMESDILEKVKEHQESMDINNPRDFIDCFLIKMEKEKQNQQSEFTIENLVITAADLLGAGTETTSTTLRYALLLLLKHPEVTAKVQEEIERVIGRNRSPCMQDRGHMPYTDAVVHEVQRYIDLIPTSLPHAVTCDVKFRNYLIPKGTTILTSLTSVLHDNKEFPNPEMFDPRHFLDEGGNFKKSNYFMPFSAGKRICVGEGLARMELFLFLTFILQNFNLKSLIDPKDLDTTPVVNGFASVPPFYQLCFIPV

[31] = Plasma protein binding in human; assay type: ADME, cell-free; conditions: read-out: PPB (converted)
[32] = Ratio of drug uptake in brain to plasma in rat at 10 mg/kg, ip after 6 hrs; assay type: ADME, organism-based; design: dose 10 mg/kg, route intraperitoneal; conditions: read-out: BPR
[33] = Cmax in monkey at 3 mg/kg, po; assay type: ADME, organism-based, Macaca mulatta; design: dose 3 mg/kg, route oral; conditions: rhesus monkey, in vivo
[34] = Terminal half life in monkey at 1 mg/kg, iv; assay type: ADME, organism-based, Macaca mulatta; design: dose 1 mg/kg, route intravenous; conditions: rhesus monkey, in vivo, read-out: beta t1/2 (converted)
[35] = molecular target: Histamine H1 receptor (Homo sapiens) (UniProt P35367); experiment: Inhibition of human histamine H1 receptor at 10 uM
Chain of Histamine H1 receptor (Homo sapiens) (P35367 whole entry): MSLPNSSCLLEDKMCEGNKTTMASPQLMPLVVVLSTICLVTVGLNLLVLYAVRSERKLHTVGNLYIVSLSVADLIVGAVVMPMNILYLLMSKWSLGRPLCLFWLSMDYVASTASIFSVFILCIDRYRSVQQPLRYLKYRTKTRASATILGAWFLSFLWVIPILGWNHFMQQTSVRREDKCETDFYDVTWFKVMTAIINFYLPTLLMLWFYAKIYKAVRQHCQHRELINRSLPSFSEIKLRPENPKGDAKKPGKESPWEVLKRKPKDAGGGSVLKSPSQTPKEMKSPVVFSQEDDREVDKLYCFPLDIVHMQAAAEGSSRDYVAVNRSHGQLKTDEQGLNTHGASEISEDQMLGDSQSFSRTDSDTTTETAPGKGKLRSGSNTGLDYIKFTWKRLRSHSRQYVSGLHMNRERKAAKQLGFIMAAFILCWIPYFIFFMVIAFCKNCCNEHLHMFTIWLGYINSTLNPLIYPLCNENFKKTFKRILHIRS

[36] = Terminal half life in dog at 1 mg/kg, iv; assay type: ADME, organism-based, Canis lupus familiaris; design: dose 1 mg/kg, route intravenous; conditions: in vivo, read-out: beta t1/2 (converted)
[37] = tested on: Rattus norvegicus; experiment: Toxicity in EEG/EMG rat model assessed as EEG activity at 1 to 30 mg/kg, ip; assay type: organism-based; design: dose 1-30 mg/kg, route intraperitoneal; conditions: in vivo
[38] = tested on: Rattus norvegicus; experiment: Wake promoting activity in EEG/EMG rat model assessed as cumulative wake time at 3 mg/kg, ip after 4 hrs (reference value: 86 +/- 7 mins); assay type: functional; conditions: route intraperitoneal
[39] = molecular target: Histamine H4 receptor (Homo sapiens) (UniProt Q9H3N8); experiment: Inhibition of human histamine H4 receptor at 10 uM
Chain of Histamine H4 receptor (Homo sapiens) (Q9H3N8 whole entry): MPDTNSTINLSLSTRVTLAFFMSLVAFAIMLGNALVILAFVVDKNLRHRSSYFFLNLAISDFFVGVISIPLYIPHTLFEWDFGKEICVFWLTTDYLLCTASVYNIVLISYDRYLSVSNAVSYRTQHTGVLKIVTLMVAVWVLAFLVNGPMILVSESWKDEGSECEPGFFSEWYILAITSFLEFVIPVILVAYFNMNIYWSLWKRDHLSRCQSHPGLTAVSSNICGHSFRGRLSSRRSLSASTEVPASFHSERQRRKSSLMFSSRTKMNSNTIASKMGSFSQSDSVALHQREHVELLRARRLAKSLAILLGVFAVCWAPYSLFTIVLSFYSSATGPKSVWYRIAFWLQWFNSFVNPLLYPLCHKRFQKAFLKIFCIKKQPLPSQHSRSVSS

[40] = tested on: Rattus norvegicus; experiment: Wake promoting activity in EEG/EMG rat model assessed as cumulative wake time at 30 mg/kg, ip after 1.5 hrs relative to vehicle-treated control; assay type: functional; conditions: route intraperitoneal
[41] = Half life in rat liver microsomes; assay type: ADME
[42] = molecular target: Histamine H3 receptor (Rattus norvegicus, UniProt Q9QYN8); experiment: Displacement of [3H]NAMH from rat histamine H3 receptor transfected in CHO cells; assay type: cell-based
Chain of Histamine H3 receptor (Rattus norvegicus, UniProt Q9QYN8) (Q9QYN8 whole entry): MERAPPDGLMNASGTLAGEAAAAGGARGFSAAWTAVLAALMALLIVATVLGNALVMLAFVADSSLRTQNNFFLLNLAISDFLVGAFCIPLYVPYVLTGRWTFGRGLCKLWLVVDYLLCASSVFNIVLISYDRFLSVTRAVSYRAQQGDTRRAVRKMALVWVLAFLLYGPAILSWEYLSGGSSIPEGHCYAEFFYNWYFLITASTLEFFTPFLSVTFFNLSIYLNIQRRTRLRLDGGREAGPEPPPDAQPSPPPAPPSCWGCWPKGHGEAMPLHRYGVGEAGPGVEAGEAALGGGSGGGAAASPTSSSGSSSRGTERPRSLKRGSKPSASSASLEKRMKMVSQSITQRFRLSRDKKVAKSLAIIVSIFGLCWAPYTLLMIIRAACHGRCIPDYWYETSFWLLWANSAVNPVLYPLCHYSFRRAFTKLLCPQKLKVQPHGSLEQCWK

[43] = Half life in human liver microsomes; assay type: ADME
[44] = molecular target: Cytochrome P450 2D6 (Homo sapiens, UniProt P10635); experiment: Inhibition of CYP2D6 (unknown origin); assay type: ADME
Chain of Cytochrome P450 2D6 (P10635 whole entry): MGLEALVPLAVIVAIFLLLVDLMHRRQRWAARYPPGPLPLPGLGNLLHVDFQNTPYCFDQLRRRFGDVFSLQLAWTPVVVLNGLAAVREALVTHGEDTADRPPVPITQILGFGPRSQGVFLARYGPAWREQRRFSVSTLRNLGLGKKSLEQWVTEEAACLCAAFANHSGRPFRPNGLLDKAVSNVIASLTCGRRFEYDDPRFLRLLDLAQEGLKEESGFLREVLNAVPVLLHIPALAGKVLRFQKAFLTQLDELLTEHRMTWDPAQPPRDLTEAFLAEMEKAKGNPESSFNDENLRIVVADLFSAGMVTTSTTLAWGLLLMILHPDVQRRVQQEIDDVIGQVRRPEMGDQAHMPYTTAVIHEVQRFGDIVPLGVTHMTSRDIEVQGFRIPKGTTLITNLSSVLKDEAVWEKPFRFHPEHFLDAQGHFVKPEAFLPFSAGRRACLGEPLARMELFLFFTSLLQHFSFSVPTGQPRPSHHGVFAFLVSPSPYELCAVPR

[45] = tested on: Rattus norvegicus; experiment: Wake promoting activity in EEG/EMG rat model assessed as cumulative wake time at 1 mg/kg, ip after 4 hrs (reference value: 86 +/- 7 mins); assay type: functional; conditions: route intraperitoneal
[46] = molecular target: Voltage-gated inwardly rectifying potassium channel KCNH2 (Homo sapiens, UniProt Q12809); experiment: Inhibition of human ERG channel by patch clamp technique
Chain of Voltage-gated inwardly rectifying potassium channel KCNH2 (Q12809 whole entry): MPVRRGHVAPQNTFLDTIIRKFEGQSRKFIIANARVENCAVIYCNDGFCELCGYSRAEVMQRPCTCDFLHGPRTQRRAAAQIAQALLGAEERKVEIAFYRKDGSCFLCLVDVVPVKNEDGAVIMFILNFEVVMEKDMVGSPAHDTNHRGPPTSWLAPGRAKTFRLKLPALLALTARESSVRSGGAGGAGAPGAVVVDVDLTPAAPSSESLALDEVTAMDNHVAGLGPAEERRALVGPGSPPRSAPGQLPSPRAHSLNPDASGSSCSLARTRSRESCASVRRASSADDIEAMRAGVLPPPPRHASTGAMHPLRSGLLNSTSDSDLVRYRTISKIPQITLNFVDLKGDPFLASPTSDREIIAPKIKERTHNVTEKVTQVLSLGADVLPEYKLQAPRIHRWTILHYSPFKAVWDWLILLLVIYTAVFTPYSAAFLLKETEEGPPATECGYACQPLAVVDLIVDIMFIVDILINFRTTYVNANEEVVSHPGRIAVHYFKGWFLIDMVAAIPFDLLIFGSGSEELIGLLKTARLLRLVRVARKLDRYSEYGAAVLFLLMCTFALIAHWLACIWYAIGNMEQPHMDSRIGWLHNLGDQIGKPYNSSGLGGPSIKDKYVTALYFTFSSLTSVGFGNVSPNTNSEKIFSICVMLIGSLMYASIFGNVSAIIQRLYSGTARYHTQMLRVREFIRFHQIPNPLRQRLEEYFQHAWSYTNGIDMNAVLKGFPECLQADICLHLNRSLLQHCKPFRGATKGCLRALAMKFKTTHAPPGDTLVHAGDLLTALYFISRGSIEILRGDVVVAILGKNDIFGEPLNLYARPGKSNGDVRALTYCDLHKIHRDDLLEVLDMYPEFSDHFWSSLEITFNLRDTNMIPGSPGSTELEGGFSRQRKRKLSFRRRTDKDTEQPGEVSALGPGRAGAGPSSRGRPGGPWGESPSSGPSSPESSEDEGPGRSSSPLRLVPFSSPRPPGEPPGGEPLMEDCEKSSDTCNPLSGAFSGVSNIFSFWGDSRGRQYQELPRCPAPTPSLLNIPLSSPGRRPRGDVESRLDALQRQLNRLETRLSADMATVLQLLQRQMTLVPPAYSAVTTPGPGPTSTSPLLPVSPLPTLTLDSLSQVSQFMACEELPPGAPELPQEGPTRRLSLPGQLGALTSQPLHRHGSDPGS

[47] = Volume of distribution at steady state in monkey at 1 mg/kg, iv; assay type: ADME, organism-based, Macaca mulatta; design: dose 1 mg/kg, route intravenous; conditions: rhesus monkey, in vivo, read-out: Vdss
[48] = Solubility of the compound in water at pH 2; assay type: physicochemical
[49] = tested on: Rattus norvegicus; experiment: Wake promoting activity in EEG/EMG rat model assessed as cumulative wake time at 30 mg/kg, ip after 4 hrs (reference value: 86 +/- 7 mins); assay type: functional; conditions: route intraperitoneal
[50] = Volume of distribution at steady state in rat at 1 mg/kg, iv; assay type: ADME, organism-based; design: dose 1 mg/kg, route intravenous; conditions: in vivo, read-out: Vdss
[51] = Half life in monkey liver microsomes; assay type: ADME, Macaca mulatta, Microsome; conditions: rhesus monkey
[52] = Ratio of drug uptake in brain to plasma in dog at 5 mg/kg, po after 6 hrs; assay type: ADME, organism-based, Canis lupus familiaris; design: dose 5 mg/kg, route oral; conditions: read-out: BPR
[53] = Plasma protein binding in dog; assay type: ADME, cell-free, Canis lupus familiaris; conditions: read-out: PPB (converted)
[54] = molecular target: T2, Cytochrome P450 1A2 (Homo sapiens, UniProt P05177); experiment: Inhibition of CYP1A2 (unknown origin); assay type: ADME
T2 sequence (P05177 whole entry): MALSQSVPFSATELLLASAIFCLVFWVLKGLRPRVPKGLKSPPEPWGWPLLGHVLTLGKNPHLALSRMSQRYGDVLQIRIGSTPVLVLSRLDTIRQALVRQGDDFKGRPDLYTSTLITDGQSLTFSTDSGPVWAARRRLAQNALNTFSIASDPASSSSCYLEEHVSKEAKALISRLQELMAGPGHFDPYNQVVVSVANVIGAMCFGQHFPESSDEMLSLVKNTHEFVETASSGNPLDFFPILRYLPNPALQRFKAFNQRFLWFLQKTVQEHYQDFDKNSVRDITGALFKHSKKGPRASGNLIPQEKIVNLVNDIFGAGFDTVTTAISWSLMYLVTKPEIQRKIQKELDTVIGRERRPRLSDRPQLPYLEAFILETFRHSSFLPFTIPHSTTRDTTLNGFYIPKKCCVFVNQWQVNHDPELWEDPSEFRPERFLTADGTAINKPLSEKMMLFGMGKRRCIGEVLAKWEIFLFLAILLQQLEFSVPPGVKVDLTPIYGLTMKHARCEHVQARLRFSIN

[55] = Solubility of the compound in water at pH 7.4; assay type: physicochemical
[56] = tested on: Rattus norvegicus; experiment: In vivo inhibition of histamine H3 receptor in ip dosed rat dipsogenia model assessed as inhibition of RAMH-induced dipsogenia; assay type: functional
[57] = tested on: Liver microsome; experiment: Metabolic stability in dog liver microsomes; assay type: ADME, Canis lupus familiaris
[58] = tested on: Liver microsome; experiment: Metabolic stability in rat liver microsomes; assay type: ADME
[59] = Metabolic stability in mouse liver microsomes; assay type: ADME, Microsome
[60] = tested on: Liver microsome; experiment: Metabolic stability in human liver microsomes; assay type: ADME
[61] = Oral bioavailability in rat; assay type: ADME, organism-based; conditions: in vivo
[62] = species: Homo sapiens; experiment: Selectivity ratio for human histamine H3 receptor over human histamine H1 receptor
[63] = species: Homo sapiens; experiment: Selectivity ratio for human histamine H3 receptor over human histamine H2 receptor
[64] = species: Homo sapiens; experiment: Selectivity ratio for human histamine H3 receptor over human histamine H4 receptor

`O=C1NN=C(c2ccc(OC3CCN(C4CCC4)CC3)cc2)[C@H]2C[C@@H]12` showed a Papp [1] of 16.4 ×10⁻⁶ cm/s, an IC50 [2] of over 30 µM and a Ki [3] of 3.8 nM. The Activity [4] was “Active”, the IC50 [5] was over 30 µM and the half-life [6] was over 40 min. For the same compound, the EC50 [7] was 0.4 nM, the Time [8] was 189 min and the clearance [9] was 16 mL/min/kg. For the same compound, the Activity [10] was “Dose-dependent effect”, the half-life [11] was 156 min and the Cmax [12] was 502 ng/mL. The Cmax [13] was 888 ng/mL, the bioavailability [14] was 114% and the inhibition [15] was under 10%. The Vd [16] was 4.1 L/kg, the AUC [17] was 8320 ng·h/mL and the AUC [18] was 2960 ng·h/mL. It also gave a bioavailability [19] of 94%, a bioavailability [20] of 92% and a Time [21] of 174 min. For the same compound, the clearance [22] was 8 mL/min/kg, the Activity [23] was “Non-toxic” and the clearance [24] was 17 mL/min/kg. It also gave an AUC [25] of 7190 ng·h/mL, an Activity [26] of over 90% and a fraction unbound [27] of 0.23. For the same compound, the Activity [28] was “Non-toxic”, the half-life [29] was over 40 min and the IC50 [30] was over 30 µM. It also gave a fraction unbound [31] of 0.23, a Kp at 6 h [32] of 3.6 and a Cmax [33] of 645 ng/mL. The half-life [34] was 516 min, the inhibition [35] was under 10% and the half-life [36] was 180 min. The Activity [37] was “Non-toxic”, the Time [38] was 129 min and the inhibition [39] was under 10%. For the same compound, the Activity [40] was 90%, the half-life [41] was over 40 min and the Ki [42] was 7.3 nM. It also gave a half-life [43] of over 40 min, an IC50 [44] of over 30 µM and a Time [45] of 121 min. The IC50 [46] was 14 µM, the Vd [47] was 6 L/kg and the solubility [48] was over 1000 µg/mL. The Time [49] was 217 min, the Vd [50] was 3.7 L/kg and the half-life [51] was over 40 min. It also gave a Kp at 6 h [52] of 5.1, a fraction unbound [53] of 0.23 and an IC50 [54] of over 30 µM. The solubility [55] was 800 µg/mL (≈ 2360 µM), the ED50 [56] was 0.14 mg/kg and the inhibition [56] was “Dose-dependent effect”.

In the case of `CN1N=C(c2ccc(OC3CCN(C4CCC4)CC3)cc2)C2CC2C1=O` (racemic), the Ki [3] is reported as 4 nM, the Stability [57] is reported as “Stable” and the Stability [58] is reported as “Stable”. The Stability [59] was “Stable”, the Stability [60] was “Stable” and the bioavailability [61] was 6%. It also gave a Selectivity ratio [62] of over 1000, a Ki [42] of 6.9 nM and a Selectivity ratio [63] of over 1000. It also gave a Selectivity ratio [64] of over 1000.
